The values below come from publication PMC4466525, “Design, Synthesis and Structure-Activity Relationship Studies of Novel Survivin Inhibitors with Potent Anti-Proliferative Properties” (PLoS ONE, 2015).

One series concerns NCI-60 cell lines. The series can be described thus: NCI-60 cell line screening (SRB), whole panel. The series is classed as cell-based, human. How it is done:
(§1) Four compounds including the parental compound UC-112 were submitted to National Cancer Institute for its NCI-60 cell line screening, initially tested at one concentration (10 μM), and subsequently selected for full five concentration testing following the standard protocols disclosed by NCI [34]. In brief, cells were plated into 96 well micro-titer plates 24 h prior to the treatment of compound solution for 48 h, then the cell viability was read out through absorbance of sulforhodamine B (SRB) staining.

In the next series the test system is PC-3. The experiment in a line: Cell viability (MTS) anti-proliferative assay, PC-3. As to conditions: PC-3 human prostate cancer, 48 h treatment, n = 4, read-out: IC50 values ± SEM, PC-3. The series is classed as cell-based. How it is done: (§2) The anti-proliferative effect of UC-112 and its analogs were tested in human melanoma (A375, M14 and M14/LCC6MDR1) and human prostate cancer (PC-3) cell lines. All the cell lines were purchased from ATCC (American Type Culture Collection, Manassas, VA). The cancer cells were cultured using the supplemented cell culture medium as described before at 37°C in a humidified atmosphere containing 5% CO2. 5000 cells in logarithm growing phase were seeded overnight into each well of a 96-well plate. Then the cells were continuously incubated with sequential diluted compound solution (10 nM to 100 μM, 100 μl per well) in cell culture medium.

Another series has as its system A375. The series can be described thus: Cell viability (MTS) anti-proliferative assay, A375. The series is classed as cell-based. As to conditions: A-375, A375 human melanoma, 48 h treatment, n = 4, read-out: IC50 values ± SEM, A375. How it is done: as §2
A further series deals with T1, CYP2D6 (Homo sapiens, UniProt P10635).
T1 construct: tissue Eurofins Panlabs Inc. (contract research service) Study Number 100017964; host or cells: human liver microsomes
T1 sequence (P10635 whole entry): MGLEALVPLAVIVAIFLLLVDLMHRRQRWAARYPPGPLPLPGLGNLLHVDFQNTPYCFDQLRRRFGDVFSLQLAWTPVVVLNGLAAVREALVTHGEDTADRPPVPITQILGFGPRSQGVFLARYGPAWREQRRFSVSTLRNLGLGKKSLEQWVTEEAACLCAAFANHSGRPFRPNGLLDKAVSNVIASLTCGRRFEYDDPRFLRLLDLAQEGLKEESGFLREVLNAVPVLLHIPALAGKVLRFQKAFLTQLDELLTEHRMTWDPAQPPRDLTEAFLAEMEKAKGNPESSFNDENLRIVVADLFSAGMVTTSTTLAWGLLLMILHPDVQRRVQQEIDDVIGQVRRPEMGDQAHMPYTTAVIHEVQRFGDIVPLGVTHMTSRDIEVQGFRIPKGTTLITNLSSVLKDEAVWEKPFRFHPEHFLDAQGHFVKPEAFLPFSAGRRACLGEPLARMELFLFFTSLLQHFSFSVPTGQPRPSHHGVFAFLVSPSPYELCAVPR
The series can be described thus: Cytochrome P450 inhibition, CYP2D6. The series is classed as in vitro ADME. As to conditions: probe dextromethorphan, substrate dextromethorphan, human liver microsomes 0.1 mg/mL, read-out: % inhibition of control values, CYP2D6. How it is done:
(§3) All these experiments were performed by a contract research service company, Eurofins Panlabs Inc. (Study Number 100017964). Aqueous solubility (μM) was determined using the shake-flask method by comparing the peak area of the principal peak in a calibration standard (200 μM) containing organic solvent (methanol/water, 60/40, v/v) with the peak area of the corresponding peak in a buffer sample. Metabolic stability study was carried out by incubating compound 4g with human liver microsomes. Metabolic stability which is expressed as percent of the parent compound remaining, was calculated by comparing the peak area of the compound at the time point relative to that at time-0. The half-life (T1/2) was estimated from the slope of the initial linear range of the logarithmic curve of compound remaining (%) vs. time. In the cytochrome P450 inhibition study, human liver microsomes (0.1 mg/mL) were incubated with different substrates and compound 4g for 10 minutes. After the incubation, peak areas corresponding to the metabolite of each substrate were recorded. The percent of control activity was then calculated by comparing the peak area obtained in the presence of compound 4g to that obtained in the absence of compound 4g. Subsequently, the percent inhibition was calculated by subtracting the percent control activity from 100.

The next series has as its target T2, survivin (Homo sapiens, UniProt O15392).
T2 construct: endogenous in cells; host or cells: A375 cells
The experiment in a line: Western blotting of survivin level, A375 cells. The series is classed as cell-based. How it is done:
(§4) Lysates of A375 cells treated by the compound solution for 24 h were used to determine the change of IAP protein levels through western blotting. Primary rabbit antibodies against survivin, XIAP, cIAP1, cIAP2, livin and GAPDH were purchased from Cell Signaling Technology, Inc. (Danvers, MA) and used according to manufacture instructions as reported previously. Protein lane intensities were quantified by ImageJ software (US National Institutes of Health, Bethesda, MD).
(In general: A western blot detects proteins with antibodies after separation by electrophoresis.)

A further series has as its target T3, CYP2C8 (Homo sapiens, UniProt P10632).
T3 construct: tissue Eurofins Panlabs Inc. (contract research service) Study Number 100017964; host or cells: human liver microsomes
The experiment in a line: Cytochrome P450 inhibition, CYP2C8. As to conditions: probe paclitaxel, substrate paclitaxel, human liver microsomes 0.1 mg/mL, read-out: % inhibition of control values, CYP2C8. The series is classed as in vitro ADME. How it is done: as §3

Another series has as its system HCT-15 (colon cancer). The series can be described thus: NCI-60 five dose screening, HCT-15. The series is classed as cell-based. As to conditions: Homo sapiens, colon cancer HCT-15. How it is done:
as §1

The next series concerns M14/LCC6MDR1. The series can be described thus: Cell viability (MTS) anti-proliferative assay, multidrug-resistant M14/LCC6MDR1. The series is classed as cell-based, human. How it is done:
as §2

In series [1] the test system is renal cancer cell line UO-31. The series can be described thus: NCI-60 five dose screening, UO-31. The series is classed as cell-based. As to conditions: Homo sapiens, renal cancer UO-31. Here is the method: as §1
The test system of series [2] is NCI/ADR-RES (ovarian cancer). The series can be described thus: NCI-60 five dose screening, NCI/ADR-RES. The series is classed as cell-based. As to conditions: Homo sapiens, NCI-60 five dose. How it is done: as §1
A further series has as its target T4, CYP1A (Homo sapiens, UniProt P05177).
T4 construct: tissue Eurofins Panlabs Inc. (contract research service) Study Number 100017964; host or cells: human liver microsomes
The experiment in a line: Cytochrome P450 inhibition, CYP1A. The series is classed as in vitro ADME. As to conditions: probe phenacetin, substrate phenacetin, human liver microsomes 0.1 mg/mL, read-out: % inhibition of control values, CYP1A. Here is the method: as §3
In general terms: Liver microsomes are a subcellular fraction often used to study metabolism.

In series [3] the test system is other IAPs (XIAP, cIAP1, cIAP2, livin). The experiment in a line: Western blotting of other IAP levels. The series is classed as cell-based, human. As to conditions: 24 h, A375 and PC-3 cells. Here is the method: as §4
Series [4] can be described thus: Metabolic stability in human liver microsomes. The series is classed as in vitro ADME. How it is done:
as §3

A word on the GI50: it is the concentration giving 50% growth inhibition. A word on the inhibition: it is how much of the control response was suppressed. A word on the microsomal CLint: it is a measure of how fast metabolising enzymes remove a compound, apart from limits set by blood flow. By half-life is commonly meant how long it takes for the measured level to halve.

T2 sequence (O15392 whole entry): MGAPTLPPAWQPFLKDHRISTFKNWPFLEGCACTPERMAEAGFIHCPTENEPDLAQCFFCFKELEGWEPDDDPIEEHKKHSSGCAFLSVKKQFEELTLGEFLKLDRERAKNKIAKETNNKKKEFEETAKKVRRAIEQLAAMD
T4 sequence (P05177 2-516 limits assumed): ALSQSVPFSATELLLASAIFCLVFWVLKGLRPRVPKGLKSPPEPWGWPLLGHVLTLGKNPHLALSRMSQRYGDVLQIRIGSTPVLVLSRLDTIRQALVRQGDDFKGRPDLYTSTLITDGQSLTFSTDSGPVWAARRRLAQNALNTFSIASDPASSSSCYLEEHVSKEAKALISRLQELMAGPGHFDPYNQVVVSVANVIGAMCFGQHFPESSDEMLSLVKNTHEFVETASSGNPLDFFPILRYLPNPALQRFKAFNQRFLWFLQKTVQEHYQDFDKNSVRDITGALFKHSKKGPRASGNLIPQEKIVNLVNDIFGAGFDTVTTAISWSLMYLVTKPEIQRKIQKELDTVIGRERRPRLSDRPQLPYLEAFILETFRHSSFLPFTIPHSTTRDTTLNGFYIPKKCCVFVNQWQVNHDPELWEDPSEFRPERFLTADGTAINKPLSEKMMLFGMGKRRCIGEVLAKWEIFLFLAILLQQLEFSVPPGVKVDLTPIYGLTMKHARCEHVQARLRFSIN
T3 sequence (P10632 whole entry): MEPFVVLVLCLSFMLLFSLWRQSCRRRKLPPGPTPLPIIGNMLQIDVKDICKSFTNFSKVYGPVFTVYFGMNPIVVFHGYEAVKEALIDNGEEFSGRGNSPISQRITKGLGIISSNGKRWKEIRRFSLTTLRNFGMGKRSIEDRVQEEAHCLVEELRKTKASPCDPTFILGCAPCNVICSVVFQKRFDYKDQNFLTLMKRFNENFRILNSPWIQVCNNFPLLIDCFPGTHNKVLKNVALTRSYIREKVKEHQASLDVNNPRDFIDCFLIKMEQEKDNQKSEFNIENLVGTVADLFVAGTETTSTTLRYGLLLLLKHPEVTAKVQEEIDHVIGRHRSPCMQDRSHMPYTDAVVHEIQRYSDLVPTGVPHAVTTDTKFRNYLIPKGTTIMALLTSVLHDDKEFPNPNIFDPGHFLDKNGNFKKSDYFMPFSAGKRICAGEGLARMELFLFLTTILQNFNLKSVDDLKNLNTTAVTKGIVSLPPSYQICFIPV

As to `CC(C)c1ccc(COCc2cc(CN3CCCC3)c(O)c3ncccc23)cc1` [4g, 5-(((4-isopropylbenzyl)oxy)methyl)-7-(pyrrolidin-1-ylmethyl)quinolin-8-ol], the GI50 with NCI-60 cell lines (Homo sapiens, five dose testing, 48 h, SRB, read-out: Average GI50 over all cancer cell lines in the NCI-60 panel) came to 500 nM; in the series on HCT-15 (colon cancer) it was 46.8 nM; in series [1] it was 52.5 nM; in series [2], 50.1 nM. For the same molecule, the “Activity in NCI-60 one-concentration screening” value with NCI-60 cell lines (one concentration, 10 μM) is given as “good activity”. In addition, the IC50 was 700 ± 100 nM in the series with PC-3; 900 ± 100 nM with A375; 1800 ± 400 nM in the series on M14/LCC6MDR1 (Homo sapiens, 48 h, multidrug-resistant M14/LCC6MDR1 melanoma, 48 h treatment, MTS, n = 4, read-out: IC50 values ± SEM, M14/LCC6MDR1). The inhibition at 10 min at CYP2D6 was 87%; on CYP2C8, 21%; on CYP1A it was 18%. For the same molecule, at survivin (300 nM, 24 h, A375 cells, lane density by ImageJ), the “Reduction of survivin level, A375” value was “over 50%”. For the same molecule, the “IC50 values for survivin inhibition” value on survivin (estimated from western blotting, A375 and PC-3 cells) is listed as “low nanomolar range”. Besides, the “Effect on survivin level, A375” value on survivin (gradient increasing dose, 24 h, A375 cells) is “dose-dependently suppressed survivin level”. For the same molecule, the “Resistance Index” value with M14/LCC6MDR1 (IC50 on M14/LCC6MDR1 divided by IC50 on parental M14) amounted to 2.3. Further, the “Effect on levels of other IAPs” value in series [3] is “minimally affected”. In addition, the intrinsic metabolic clearance (microsomal CLint) at 100 nM in [4] (human) was 137 µL/min/mg. This molecule also gave a half-life at 100 nM in series [4] (test concentration 100 nM) of 51 min.
